Laboratory results from article PMC4079326 (Journal of Medicinal Chemistry, 2014).

What was measured:
AmpC = AmpC (Escherichia coli, UniProt P00811); assay type: biochemical
TEM-1 = TEM-1 (Escherichia coli, UniProt P62593); assay type: biochemical
TEM-30 R244S = TEM-30 R244S (Escherichia coli, UniProt P62593, R241S); assay type: biochemical; conditions: 4 vs 5 on TEM-30
CTX-M-9 [1] = target: T1, CTX-M-9 (Escherichia coli, UniProt Q9L5C8); assay type: biochemical; conditions: class A
[2] = data not shown
CTX-M-9 [3] = target: T1, CTX-M-9; conditions: read-out: affinity toward CTX-M-9 (Ki); cited from earlier work

For `CC(=O)/C=C/c1c(B(O)O)sc2ccccc12` [Compound 4], the “times less active vs AmpC” value (AmpC) was 8 times, the “times less active vs class A” value (TEM-1) was 125 times and the “change of binding vs TEM-30 with respect to compound 5” value (TEM-30 R244S) was “less than 1 fold”.

In the case of `O=C(O)/C=C/c1c(B(O)O)sc2ccccc12` [Compound 5, 3-(2-carboxyvinyl)benzo(b)thiophene-2-boronic acid], the “gain in affinity vs TEM-1 with respect to starting lead 1” value (TEM-1; class A) is reported as 1250 fold, the “improvement of binding energy vs TEM-1” value (TEM-1; moving from 1 to 5) is reported as 2.8 kcal/mol and the “gain in affinity vs CTX with respect to starting lead 1” value (CTX-M-9 [1]) is reported as 1250 fold. For the same molecule, the “stability in microbiology assay conditions over time” value [2] was “unstable”.

For `O=C(Cc1cccs1)N[C@H](B(O)O)c1cccc(C(=O)O)c1` [SMS2, (1R)-1-(2-thienylacetylamino)-1-(3-carboxyphenyl)methylboronic acid], the Ki (CTX-M-9 [3]) is listed as 578 nM.
